Test results reported in US9944602B2, “Piperidinone herbicides” (E. I. DU PONT DE NEMOURS AND COMPANY, priority 2014, dated 2018).
Values belong to the compound of their own block, whether it stands above or below them.

Columns and labels:
[1] = test system: pigweed (Amaranthus retroflexus); assay: Test A postemergence pigweed; type: in vivo; settings: Amaranthus retroflexus, post-emergence, 240 h, 0 to 100 scale, 0 is no effect, 100 is complete control, read-out: Plant response rating, Pigweed; for pest or weed control at 125 g/ha: 125 g ai/ha; for pest or weed control at 500 g/ha: 500 g ai/ha
Outline: (§1)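 Greenhouse pot test: chemicals formulated with surfactant in non-phytotoxic solvent, sprayed on soil at seeding (pre) or on 1–2 leaf seedlings of 2–10 cm (post). Rating ~10 d later, visual, 0 = no effect to 100 = complete control, relative to untreated controls.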

[2] = test system: barnyardgrass (Echinochloa crus-galli); assay: Test B flooded paddy test barnyardgrass; type: in vivo; settings: Echinochloa crus-galli, Table B, Flood, 250 g ai/ha, scale 0 to 100, read-out: Plant response rating
Outline: (§2)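 Plants grown to the 2-leaf stage; pots flooded to 3 cm above soil at treatment, compound applied directly into paddy water, depth held throughout. Greenhouse 13 to 15 d, then visual evaluation against untreated controls.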

[3] = test system: wheat (Triticum aestivum); assay: Test A postemergence wheat; type: in vivo; settings: Triticum aestivum, post-emergence, 240 h, 0 to 100 scale, 0 is no effect, 100 is complete control, read-out: Plant response rating, Wheat; for plant injury at 125 g/ha: 125 g ai/ha; for plant injury at 500 g/ha: 500 g ai/ha
Outline: as §1

[4] = test system: rice (Oryza sativa); assay: Test C flooded paddy test rice; type: in vivo; settings: Table C, Flood, scale 0 to 100
Outline: (§3)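 Plants grown to the 2-leaf stage in pots flooded to 3 cm above soil; compounds applied directly into the paddy water, depth held throughout. After 13 to 15 d in greenhouse, injury visually rated against untreated controls on a 0–100 scale (0 no effect, 100 complete control).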

[5] = test system: barnyardgrass (Echinochloa crus-galli); assay: Test C flooded paddy test barnyardgrass; type: in vivo; settings: Table C, Flood, scale 0 to 100
Outline: as §3

[6] = test system: foxtail, giant (giant foxtail, Setaria faberii); assay: Test A preemergence foxtail, giant; type: in vivo; settings: Setaria faberi, pre-emergence, 240 h, 0 to 100 scale, 0 no effect, 100 complete control, read-out: Foxtail, Giant plant response rating; for pest or weed control at 125 g/ha: 125 g ai/ha; for pest or weed control at 500 g/ha: 500 g ai/ha
Outline: as §1

[7] = test system: sedge, umbrella (small-flower umbrella sedge, Cyperus difformis); assay: Test B flooded paddy test sedge, umbrella; type: in vivo; settings: Cyperus difformis, Table B, Flood, 250 g ai/ha, scale 0 to 100, read-out: Plant response rating
Outline: as §2

[8] = test system: ducksalad (Heteranthera limosa); assay: Test C flooded paddy test ducksalad; type: in vivo; settings: Table C, Flood, scale 0 to 100
Outline: as §3

[9] = test system: rice (Oryza sativa); assay: Test B flooded paddy test rice; type: in vivo; settings: Oryza sativa, Table B, Flood, 250 g ai/ha, scale 0 to 100, read-out: Plant response rating
Outline: as §2

[10] = test system: barnyardgrass (Echinochloa crus-galli); assay: Test A preemergence barnyardgrass; type: in vivo; settings: 0 to 100 scale; for Plant response rating, Barnyardgrass: 500 g ai/ha, 0 is no effect, 100 is complete control; for pest or weed control at 125 g/ha: Echinochloa crus-galli, pre-emergence, 240 h, 125 g ai/ha, 0 no effect, 100 complete control, read-out: Barnyardgrass plant response rating
Outline: as §1

[11] = test system: pigweed (Amaranthus retroflexus); assay: Test A preemergence pigweed; type: in vivo; settings: Amaranthus retroflexus, pre-emergence, 240 h, 0 to 100 scale, 0 no effect, 100 complete control, read-out: Pigweed plant response rating; for pest or weed control at 125 g/ha: 125 g ai/ha; for pest or weed control at 500 g/ha: 500 g ai/ha
Outline: as §1

[12] = test system: barnyardgrass (Echinochloa crus-galli); assay: Test A postemergence barnyardgrass; type: in vivo; settings: Echinochloa crus-galli, post-emergence, 240 h, 0 to 100 scale, 0 is no effect, 100 is complete control, read-out: Plant response rating, Barnyardgrass; for pest or weed control at 125 g/ha: 125 g ai/ha; for pest or weed control at 500 g/ha: 500 g ai/ha
Outline: as §1

[13] = test system: corn (Zea mays); assay: Test A postemergence corn; type: in vivo; settings: Zea mays, post-emergence, 240 h, 0 to 100 scale, 0 is no effect, 100 is complete control; for Corn plant response rating (crop injury, 0 = no effect, 100 = complete kill) at 125 g/ha: 125 g ai/ha; for Corn plant response rating (crop injury, 0 = no effect, 100 = complete kill) at 500 g/ha: 500 g ai/ha
Outline: as §1

[14] = test system: sedge, umbrella (small-flower umbrella sedge, Cyperus difformis); assay: Test C flooded paddy test sedge, umbrella; type: in vivo; settings: Table C, Flood, scale 0 to 100
Outline: as §3

[15] = test system: ducksalad (Heteranthera limosa); assay: Test B flooded paddy test ducksalad; type: in vivo; settings: Heteranthera limosa, Table B, Flood, 250 g ai/ha, scale 0 to 100, read-out: Plant response rating
Outline: as §2

[16] = test system: foxtail, giant (giant foxtail, Setaria faberii); assay: Test A postemergence foxtail, giant; type: in vivo; settings: Setaria faberi, post-emergence, 240 h, 0 to 100 scale, 0 is no effect, 100 is complete control, read-out: Plant response rating, Foxtail, Giant; for pest or weed control at 125 g/ha: 125 g ai/ha; for pest or weed control at 500 g/ha: 500 g ai/ha
Outline: as §1

[17] = test system: ryegrass, Italian (Italian ryegrass, Lolium multiflorum); assay: Test A postemergence ryegrass, Italian; type: in vivo; settings: Lolium multiflorum, post-emergence, 240 h, 0 to 100 scale, 0 is no effect, 100 is complete control, read-out: Plant response rating, Ryegrass, Italian
Outline: as §1

[18] = test system: ragweed (common ragweed, Ambrosia elatior); assay: Test A preemergence ragweed; type: in vivo; settings: Ambrosia artemisiifolia, pre-emergence, 240 h, 0 to 100 scale, 0 no effect, 100 complete control, read-out: Ragweed plant response rating
Outline: as §1

[19] = test system: kochia (Kochia scoparia); assay: Test A preemergence kochia; type: in vivo; settings: Bassia scoparia, pre-emergence, 240 h, 0 to 100 scale, 0 no effect, 100 complete control, read-out: Kochia plant response rating
Outline: as §1

[20] = test system: galium (catchweed bedstraw, Galium aparine); assay: Test A postemergence galium; type: in vivo; settings: Galium, post-emergence, 240 h, 0 to 100 scale, 0 is no effect, 100 is complete control, read-out: Plant response rating, Galium
Outline: as §1

[21] = test system: kochia (Kochia scoparia); assay: Test A postemergence kochia; type: in vivo; settings: Bassia scoparia, post-emergence, 240 h, 0 to 100 scale, 0 is no effect, 100 is complete control, read-out: Plant response rating, Kochia
Outline: as §1

[22] = test system: blackgrass (Alopecurus myosuroides); assay: Test A postemergence blackgrass; type: in vivo; settings: Alopecurus myosuroides, post-emergence, 240 h, 0 to 100 scale, 0 is no effect, 100 is complete control, read-out: Plant response rating, Blackgrass
Outline: as §1

[23] = test system: ryegrass, Italian (Italian ryegrass, Lolium multiflorum); assay: Test A preemergence ryegrass, Italian; type: in vivo; settings: Lolium multiflorum, pre-emergence, 240 h, 0 to 100 scale, 0 no effect, 100 complete control, read-out: Ryegrass, Italian plant response rating
Outline: as §1

[24] = test system: ragweed (common ragweed, Ambrosia elatior); assay: Test A postemergence ragweed; type: in vivo; settings: Ambrosia artemisiifolia, post-emergence, 240 h, 0 to 100 scale, 0 is no effect, 100 is complete control, read-out: Plant response rating, Ragweed
Outline: as §1

melting point: 292 to 295 °C
Structure (SMILES): O=C1NCCC(c2cccc(C(F)(F)F)c2)C1C(=O)Nc1ccccc1C(F)(F)F (centres unmarked) [Compound 10, 2-oxo-N-[2-(trifluoromethyl)phenyl)-4-[3-(trifluoromethyl)phenyl]-3-piperidinecarboxamide]
pest or weed control at 125 g/ha [1]: 0%
pest or weed control at 500 g/ha [1]: 0%
pest or weed control at 250 g/ha [2]: 0%
plant injury at 125 g/ha [3]: 0%
plant injury at 500 g/ha [3]: 0%
Plant response rating ([4]; 1000 g ai/ha): 10
Plant response rating ([5]; 1000 g ai/ha): 65
pest or weed control at 125 g/ha [6]: 90%
pest or weed control at 500 g/ha [6]: 90%
pest or weed control at 250 g/ha [7]: 0%
Plant response rating ([8]; 1000 g ai/ha): 85
plant injury at 250 g/ha [9]: 10%
Plant response rating, Barnyardgrass [10]: 90
pest or weed control at 125 g/ha [10]: 60%
pest or weed control at 125 g/ha [11]: 0%
pest or weed control at 500 g/ha [11]: 0%
pest or weed control at 125 g/ha [12]: 80%
pest or weed control at 500 g/ha [12]: 90%
Corn plant response rating (crop injury, 0 = no effect, 100 = complete kill) at 125 g/ha [13]: 0%
Corn plant response rating (crop injury, 0 = no effect, 100 = complete kill) at 500 g/ha [13]: 0%
Plant response rating ([14]; 1000 g ai/ha): 0
pest or weed control at 250 g/ha [15]: 40%
pest or weed control at 125 g/ha [16]: 40%
pest or weed control at 500 g/ha [16]: 70%

melting point: 180 to 182 °C
Structure (SMILES): O=C1NCCC(c2ccc(C(F)(F)F)cc2)C1C(=O)Nc1cccc(F)c1F (centres unmarked) [Compound 11, N-(2,3-difluorophenyl)-2-oxo-4-[4-(trifluoromethyl)phenyl]-3-piperidinecarboxamide]
pest or weed control at 125 g/ha ([17]; 125 g ai/ha): 0%
pest or weed control at 500 g/ha ([17]; 500 g ai/ha): 30%
pest or weed control at 125 g/ha [1]: 0%
pest or weed control at 500 g/ha [1]: 30%
plant injury at 125 g/ha [3]: 0%
plant injury at 500 g/ha [3]: 50%
Plant response rating ([4]; 125 g ai/ha): 0
Plant response rating ([4]; 250 g ai/ha): 0
Plant response rating ([4]; 500 g ai/ha): 0
Plant response rating ([4]; 1000 g ai/ha): 0
Plant response rating ([5]; 125 g ai/ha): 10
Plant response rating ([5]; 250 g ai/ha): 20
Plant response rating ([5]; 500 g ai/ha): 50
Plant response rating ([5]; 1000 g ai/ha): 70
pest or weed control at 125 g/ha [6]: 70%
pest or weed control at 500 g/ha [6]: 90%
pest or weed control at 125 g/ha ([18]; 125 g ai/ha): 40%
pest or weed control at 500 g/ha ([18]; 500 g ai/ha): 80%
pest or weed control at 125 g/ha ([19]; 125 g ai/ha): 0%
pest or weed control at 500 g/ha ([19]; 500 g ai/ha): 60%
Plant response rating ([8]; 125 g ai/ha): 30
Plant response rating ([8]; 250 g ai/ha): 80
Plant response rating ([8]; 500 g ai/ha): 95
Plant response rating ([8]; 1000 g ai/ha): 100
Plant response rating, Barnyardgrass [10]: 90
pest or weed control at 125 g/ha [10]: 60%
pest or weed control at 125 g/ha ([20]; 125 g ai/ha): 40%
pest or weed control at 500 g/ha ([20]; 500 g ai/ha): 60%
pest or weed control at 125 g/ha [11]: 0%
pest or weed control at 500 g/ha [11]: 40%
pest or weed control at 125 g/ha ([21]; 125 g ai/ha): 20%
pest or weed control at 500 g/ha ([21]; 500 g ai/ha): 50%
pest or weed control at 125 g/ha [12]: 70%
pest or weed control at 500 g/ha [12]: 90%
pest or weed control at 125 g/ha ([22]; 125 g ai/ha): 20%
pest or weed control at 500 g/ha ([22]; 500 g ai/ha): 50%
Corn plant response rating (crop injury, 0 = no effect, 100 = complete kill) at 125 g/ha [13]: 0%
Corn plant response rating (crop injury, 0 = no effect, 100 = complete kill) at 500 g/ha [13]: 40%
Plant response rating ([14]; 125 g ai/ha): 0
Plant response rating ([14]; 250 g ai/ha): 0
Plant response rating ([14]; 500 g ai/ha): 0
Plant response rating ([14]; 1000 g ai/ha): 0
pest or weed control at 125 g/ha ([23]; 125 g ai/ha): 0%
pest or weed control at 500 g/ha ([23]; 500 g ai/ha): 0%
pest or weed control at 125 g/ha ([24]; 125 g ai/ha): 0%
pest or weed control at 500 g/ha ([24]; 500 g ai/ha): 20%
pest or weed control at 125 g/ha [16]: 80%
pest or weed control at 500 g/ha [16]: 90%
